Laboratory results taken from patent US4087548A, “Complement inhibitors” (American Cyanamid Company, priority 1976, dated 1978).
Counter-ions that a name gives are not always drawn.

Experiments:
activated human C1 = biological target: T1, activated human C1 (Homo sapiens, UniProt P09871); experiment: Test, Code 026 (C1 inhibitor); assay type: biochemical; conditions: serial two-fold dilutions assay; higher well number indicates higher activity
T1 construct: C1s cleaved into disulfide-linked heavy and light chains; fluid-phase C2 consumption with C4
Source text: (§1) This test measures the ability of activated human C1 to destroy fluid phase human C2 in the presence of C4 and appropriate dilutions of the test compound. An active inhibitor protects C2 from C1 and C4; (ii) Test, Code 035 (C3-C9 inhibitor) -- This test determines the ability of the late components of human complement (C3-C9) to lyse EAC 142 in the presence of appropriate dilutions of the test compound. An active inhibitor protects EAC 142 from lysis by human C3-C9; (iii) Test, Code 036 (C-Shunt inhibitor) -- In this test human erythrocytes rendered fragile are lysed in autologous serum via the shunt pathway activated by cobra venom factor in the presence of appropriate dilutions of the test compound. Inhibition of the shunt pathway results in failure of lysis; (iv) Forssman Vasculitis Test -- Here, the well known complement dependent lesion, Forssman vasculitis, is produced in guinea pigs by intradermal injection of rabbit anti-Forssman antiserum. The lesion is measured in terms of diameter, edema and hemorrhage and the extent to which a combined index of these is inhibited by prior intraperitoneal injection of the test compound at 200 mg/kg is then reported, unless otherwise stated; (v) Forssman Shock Test -- Lethal shock is produced in guinea pigs by an i.v. injection of anti-Forssman antiserum and the harmonic mean death time of treated guinea pigs is compared with that of simultaneous controls; (vi) Complement Level Reduction Test -- In this test, the above dosed guinea pigs, or others, are bled for serum and the complement level is determined in undiluted serum by the capillary tube method of U.S. Pat. No. 3,876,376 and compared to undosed control guinea pigs; and (vii) Cap 50 Test -- Here, appropriate amounts of the test compound are added to a pool of guinea pig serum in vitro, after which the undiluted serum capillary tube assay referred to above is run. The concentration of compound inhibiting 50% is reported.
(§2) **Numbers represent activity in wells, a serial dilutions assay, higher
(§3) well number indicates higher activity. The serial dilutions are two-fold.

[1] = tested on: shunt pathway activated by cobra venom factor; experiment: Test, Code 036 (C-Shunt inhibitor), lysis of human erythrocytes in autologous serum; assay type: cell-based; conditions: serial two-fold dilutions assay; higher well number indicates higher activity
Source text: as §1, §2, §3

guinea pigs = experiment: Forssman Shock Test; assay type: in vivo, guinea pig; conditions: control = 3.15 minutes
Source text: as §1
***Harmonic mean death time in minutes. (control = 3.15 minutes).

[2] = tested on: late components of human complement (C3-C9); experiment: Test, Code 035 (C3-C9 inhibitor), lysis of EAC 142; assay type: cell-based; conditions: serial two-fold dilutions assay; higher well number indicates higher activity
Protocol: as §1, with “An active inhibitor protects EAC 142 from lysis by human C3-C9; (iii) Test, Code 036 (C-Shunt inhibitor) -- In this test human erythrocytes rendered fragile are lysed in autologous serum via the shunt pathway activated by cobra venom factor in the presence of appropriate dilutions of the test compound. Inhibition of the shunt pathway results in failure of lysis; (iv) Forssman Vasculitis Test -- Here, the well known complement dependent lesion, Forssman vasculitis, is produced in guinea pigs by intradermal injection of rabbit anti-Forssman antiserum.” left out, “The concentration of compound inhibiting 50% is reported.” left out

T1 sequence (P09871 16-688): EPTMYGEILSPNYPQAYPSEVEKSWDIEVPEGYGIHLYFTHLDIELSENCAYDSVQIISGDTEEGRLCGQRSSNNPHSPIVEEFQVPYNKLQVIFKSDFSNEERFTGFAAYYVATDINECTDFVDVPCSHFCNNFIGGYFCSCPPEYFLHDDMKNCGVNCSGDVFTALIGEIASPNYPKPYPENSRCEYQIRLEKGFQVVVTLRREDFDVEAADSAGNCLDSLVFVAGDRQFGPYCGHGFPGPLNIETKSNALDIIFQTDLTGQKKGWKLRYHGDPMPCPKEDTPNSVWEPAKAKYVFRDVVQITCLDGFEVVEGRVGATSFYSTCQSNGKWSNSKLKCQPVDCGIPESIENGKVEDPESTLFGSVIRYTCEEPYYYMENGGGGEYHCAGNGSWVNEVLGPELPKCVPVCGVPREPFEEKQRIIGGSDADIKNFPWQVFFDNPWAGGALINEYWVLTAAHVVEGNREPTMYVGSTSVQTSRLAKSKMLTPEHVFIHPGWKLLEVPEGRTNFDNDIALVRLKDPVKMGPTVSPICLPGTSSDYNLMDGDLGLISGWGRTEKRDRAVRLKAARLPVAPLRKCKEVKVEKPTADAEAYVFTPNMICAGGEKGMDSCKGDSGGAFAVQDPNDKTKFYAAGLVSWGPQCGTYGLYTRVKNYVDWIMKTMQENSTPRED
T1 sequence (P00736 18-705 partner): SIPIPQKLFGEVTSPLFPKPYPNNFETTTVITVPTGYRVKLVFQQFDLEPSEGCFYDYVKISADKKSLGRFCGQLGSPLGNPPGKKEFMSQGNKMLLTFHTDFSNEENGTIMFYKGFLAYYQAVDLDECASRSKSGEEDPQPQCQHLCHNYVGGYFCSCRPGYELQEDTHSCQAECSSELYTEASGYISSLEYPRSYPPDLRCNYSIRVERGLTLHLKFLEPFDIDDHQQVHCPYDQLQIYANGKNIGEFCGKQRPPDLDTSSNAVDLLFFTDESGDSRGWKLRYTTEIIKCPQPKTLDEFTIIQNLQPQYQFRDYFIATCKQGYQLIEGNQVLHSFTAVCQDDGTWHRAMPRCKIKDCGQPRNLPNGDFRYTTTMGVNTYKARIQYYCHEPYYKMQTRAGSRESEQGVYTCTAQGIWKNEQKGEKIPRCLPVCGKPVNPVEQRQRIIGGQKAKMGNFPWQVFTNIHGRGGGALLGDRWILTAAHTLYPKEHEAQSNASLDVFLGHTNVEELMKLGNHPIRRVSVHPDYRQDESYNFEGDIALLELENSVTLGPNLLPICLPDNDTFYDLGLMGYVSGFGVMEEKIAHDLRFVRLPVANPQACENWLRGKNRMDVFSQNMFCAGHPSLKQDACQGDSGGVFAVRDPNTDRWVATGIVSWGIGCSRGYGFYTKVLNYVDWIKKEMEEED
T1 sequence (P02745 23-245 partner): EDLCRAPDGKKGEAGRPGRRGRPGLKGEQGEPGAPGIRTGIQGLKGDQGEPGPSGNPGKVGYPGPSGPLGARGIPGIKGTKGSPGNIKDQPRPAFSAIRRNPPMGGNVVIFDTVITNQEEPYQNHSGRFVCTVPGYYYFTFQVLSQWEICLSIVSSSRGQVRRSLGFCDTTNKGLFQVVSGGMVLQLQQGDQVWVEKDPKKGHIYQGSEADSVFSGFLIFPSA
T1 sequence (P02746 28-253 partner): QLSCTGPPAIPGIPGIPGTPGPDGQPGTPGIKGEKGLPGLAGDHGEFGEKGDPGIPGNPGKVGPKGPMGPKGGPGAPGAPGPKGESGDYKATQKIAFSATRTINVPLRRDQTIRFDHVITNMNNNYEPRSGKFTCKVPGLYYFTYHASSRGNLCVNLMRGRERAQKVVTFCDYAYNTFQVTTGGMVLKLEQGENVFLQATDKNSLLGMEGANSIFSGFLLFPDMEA
T1 sequence (P02747 29-245 partner): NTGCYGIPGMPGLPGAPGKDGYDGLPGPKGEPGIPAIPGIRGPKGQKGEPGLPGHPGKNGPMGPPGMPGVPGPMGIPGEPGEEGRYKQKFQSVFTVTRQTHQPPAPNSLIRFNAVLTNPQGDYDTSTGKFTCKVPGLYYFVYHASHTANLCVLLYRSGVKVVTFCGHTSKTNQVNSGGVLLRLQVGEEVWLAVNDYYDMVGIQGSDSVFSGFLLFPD

Row | Structure (SMILES) | Code 026 (activity in wells) (activated human C1) | Forssman Shock, harmonic mean death time (guinea pigs; route not given) [min] | other results
1 | Nc1cccc(C(=O)Nc2cccc(C(=O)Nc3cc(S(=O)(=O)[O-])cc4cc(S(=O)(=O)[O-])cc(S(=O)(=O)[O-])c34)c2)c1.[Na+].[Na+].[Na+] [8-[m-(m-Aminobenzamido)benzamido]-1,3,6-naphthalene-trisulfonic acid, trisodium salt] | +2 wells | – | –
2 | Cc1ccc(C(=O)Nc2cc(S(=O)(=O)O)cc3cc(S(=O)(=O)O)cc(S(=O)(=O)O)c23)cc1NC(=O)C(=O)Nc1cc(C(=O)Nc2cc(S(=O)(=O)O)cc3cc(S(=O)(=O)O)cc(S(=O)(=O)O)c23)ccc1C [8,8'-{Oxalylbis {{[imino(4-methyl-1,3-phenylene)]carbonyl}imino}}di-1,3,6-naphthalenetrisulfonic acid, hexasodium salt] | +4 wells | – | Code 036 (activity in wells) [1]: +3 wells
3 | Nc1ccc(C(=O)Nc2cc(S(=O)(=O)[O-])cc3cc(S(=O)(=O)[O-])cc(S(=O)(=O)[O-])c23)cc1.[Na+].[Na+].[Na+] [8-(p-Aminobenzamido)-1,3,6-naphthalenetrisulfonic acid, trisodium salt] | +3 wells | 10 | –
4 | Cc1ccc(N)cc1C(=O)Nc1cc(S(=O)(=O)O)cc2cc(S(=O)(=O)O)cc(S(=O)(=O)O)c12 [8-(5-Amino-o-toluamido)-1,3,6-naphthalenetrisulfonic acid, trisodium salt] | – | 14 | –
5 | Cc1ccc(NC(=O)Nc2cccc(C(=O)Nc3cc(S(=O)(=O)[O-])cc4cc(S(=O)(=O)[O-])cc(S(=O)(=O)[O-])c34)c2)cc1[N+](=O)[O-].[Na+].[Na+].[Na+] [8-{m-[3-(3-Nitro-p-tolyl)ureido]benzamido}-1,3,6-naphthalenetrisulfonic acid, trisodium salt] | +2 wells | 32 | –
6 | Cc1ccc(C(=O)Nc2cc(S(=O)(=O)O)cc3cc(S(=O)(=O)O)cc(S(=O)(=O)O)c23)cc1NC(=O)Nc1cc(C(=O)Nc2cc(S(=O)(=O)O)cc3cc(S(=O)(=O)O)cc(S(=O)(=O)O)c23)ccc1C [8,8'-[Ureylenebis(4-methyl-m-phenylenecarbonylimino)]di-1,3,6-naphthalenetrisulfonic acid, hexasodium salt] | – | – | Forssman Shock, harmonic mean death time (guinea pigs; i.p.): 28 min; Forssman Shock, harmonic mean death time (guinea pigs; i.v.): 46 min
7 | O=C(Nc1cccc(C(=O)Nc2cc(S(=O)(=O)[O-])cc3cc(S(=O)(=O)[O-])cc(S(=O)(=O)[O-])c23)c1)Nc1cccc(C(=O)Nc2cc(S(=O)(=O)[O-])cc3cc(S(=O)(=O)[O-])cc(S(=O)(=O)[O-])c23)c1.[Na+].[Na+].[Na+].[Na+].[Na+].[Na+] [8,8'-[Ureylenebis(m-phenylenecarbonylimino)]di-1,3,6-naphthalenetrisulfonicacid, hexasodium salt] | +6 wells | – | Code 036 (activity in wells) [1]: +1 wells
8 | Cc1cc(C(=O)Nc2cc(S(=O)(=O)O)cc3cc(S(=O)(=O)O)cc(S(=O)(=O)O)c23)ccc1[N+](=O)[O-] [8-(4-Nitro-m-toluamido)-1,3,6-naphthalenetrisulfonic acid, trisodium salt] | +1 wells | 46 | –
9 | O=C(Nc1cc2c(S(=O)(=O)[O-])cc(S(=O)(=O)[O-])cc2cc1S(=O)(=O)[O-])c1cccc([N+](=O)[O-])c1.[Na+].[Na+].[Na+] [7-m-Nitrobenzamido-1,3,6-naphthalenetrisulfonic acid, trisodium salt] | – | 20 | –
10 | Cc1ccc(C(=O)Nc2cc(S(=O)(=O)O)cc3cc(S(=O)(=O)O)cc(S(=O)(=O)O)c23)cc1N [8-(3-Amino-p-toluamido)-1,3,6-naphthalenetrisulfonic acid, trisodium salt] | +3 wells | 14 | –
11 | Nc1cccc(C(=O)Nc2cc3c(S(=O)(=O)[O-])cc(S(=O)(=O)[O-])cc3cc2S(=O)(=O)[O-])c1.[Na+].[Na+].[Na+] [7-(m-Aminobenzamido)-1,3,6-naphthalenetrisulfonic acid, trisodium salt] | – | 33 | –
12 | Cc1cc(C(=O)Nc2cc(S(=O)(=O)O)cc3cc(S(=O)(=O)O)cc(S(=O)(=O)O)c23)ccc1N [8-(4-Amino-m-toluamido)-1,3,6-naphthalenetrisulfonic acid, trisodium salt] | +3 wells | 14 | –
13 | Cc1ccc(C(=O)Nc2cc(S(=O)(=O)O)cc3cc(S(=O)(=O)O)cc(S(=O)(=O)O)c23)cc1[N+](=O)[O-] [8-(3-Nitro-p-toluamido)-1,3,6-naphthalenetrisulfonic acid, trisodium salt] | +2 wells | 25 | –
14 | O=C(Nc1cccc(C(=O)Nc2cc3c(S(=O)(=O)[O-])cc(S(=O)(=O)[O-])cc3cc2S(=O)(=O)[O-])c1)Nc1cccc(C(=O)Nc2cc3c(S(=O)(=O)[O-])cc(S(=O)(=O)[O-])cc3cc2S(=O)(=O)[O-])c1.[Na+].[Na+].[Na+].[Na+].[Na+].[Na+] [7,7'-[Ureylenebis(m-phenylenecarbonylimino)]di-1,3,6-naphthalenetrisulfonic acid, hexasodium salt] | – | 14 | Code 035 (activity in wells) [2]: +1 wells; Code 036 (activity in wells) [1]: +1 wells
15 | O=C(Nc1cc(S(=O)(=O)[O-])cc2cc(S(=O)(=O)[O-])cc(S(=O)(=O)[O-])c12)c1ccc([N+](=O)[O-])cc1.[Na+].[Na+].[Na+] [8-p-Nitrobenzamido-1,3,6-naphthalenetrisulfonic acid, trisodium salt] | +1 wells | 13 | –
16 | Cc1ccc(NC(=O)Nc2ccc(C)c(C(=O)Nc3cc(S(=O)(=O)O)cc4cc(S(=O)(=O)O)cc(S(=O)(=O)O)c34)c2)cc1C(=O)Nc1cc(S(=O)(=O)O)cc2cc(S(=O)(=O)O)cc(S(=O)(=O)O)c12 [8,8'-[Ureylenebis(6-methyl-m-phenylenecarbonylimino)]di-1,3,6-naphthalenetrisulfonic acid, hexasodium salt] | +5 wells | 11 | Code 035 (activity in wells) [2]: +4 wells
17 | O=C(Nc1ccc(C(=O)Nc2cc(S(=O)(=O)[O-])cc3cc(S(=O)(=O)[O-])cc(S(=O)(=O)[O-])c23)cc1)Nc1ccc(C(=O)Nc2cc(S(=O)(=O)[O-])cc3cc(S(=O)(=O)[O-])cc(S(=O)(=O)[O-])c23)cc1.[Na+].[Na+].[Na+].[Na+].[Na+].[Na+] [8,8'-[Ureylenebis(p-phenylenecarbonylimino)]di-1,3,6-naphthalenetrisulfonicacid, hexasodium salt] | +4 wells | – | –
18 | Cc1ccc(NC(=O)Nc2cc(S(=O)(=O)O)cc3cc(S(=O)(=O)O)cc(S(=O)(=O)O)c23)cc1NC(=O)Nc1cc(NC(=O)Nc2cc(S(=O)(=O)O)cc3cc(S(=O)(=O)O)cc(S(=O)(=O)O)c23)ccc1C [8,8'-{Ureylenebis[(4-methyl-m-phenylene)ureylene]}di-1,3,6-naphthalenetrisulfonic acid, hexasodium salt] | +4 wells | – | Code 036 (activity in wells) [1]: +1 wells
